From patent US12384801B2, “Benzothiophene, thienopyridine and thienopyrimidine derivatives for the modulation of sting” (CTXT PTY LTD, priority 2019, dated 2025) come the findings set out here.

For test [1], the target named is T1, human STING (HAQ) (Homo sapiens (Human), UniProt Q86WV6, G230A/H232R/R293Q). The experiment in a line: Differential scanning fluorimetry (DSF), huSTING (HAQ). The class given is binding. Conditions: compound 100 μM, 2 μM protein, Tm with ligand minus Tm of protein alone (1% DMSO). Here is the method:
(§1) Data were analyzed using “Meltdown analysis” protocol described by Rosa (2015).

Test [2] has as its target T2, human STING (WT) (Homo sapiens (Human), UniProt Q86WV6, H232R). In words: Differential scanning fluorimetry (DSF), huSTING (WT). The class given is binding. As to conditions: compound 100 μM, 2 μM protein, Tm with ligand minus Tm of protein alone (1% DMSO). How it is done: as §1
Test [3] deals with human HAQ isoform of STING (Homo sapiens (Human), UniProt Q86WV6, G230A/H232R/R293Q/R71H). The experiment in a line: THP-1 STING Lucia ISG reporter cell line assay. The class given is cell-based. As to conditions: 24 h incubation, luminescence, normalized to ML RR-S2 CDA 40 μM; read-out: EC50 THP-I STING Lucia ISG cells. How it is done: (§2) THP-1 STING Lucia ISG cells (InvivoGen #thpl-isg) were cultured in RPMI-1640 containing 2 mM L-glutamine, 25 mM HEPES, 100 μg/mL Normocin (InvivoGen) and 10% heat-inactivated FBS. Cells were seeded at a density of 7×10^5 cells/mL, maintained at 37° C./5% CO2, and passaged every 3-4 days. Selection pressure was maintained by the addition of 100 μg/mL Zeocin every second passage.
human HAQ isoform of STING, sequence (Q86WV6 whole entry R71H/G230A/H232R/R293Q, canonical isoform): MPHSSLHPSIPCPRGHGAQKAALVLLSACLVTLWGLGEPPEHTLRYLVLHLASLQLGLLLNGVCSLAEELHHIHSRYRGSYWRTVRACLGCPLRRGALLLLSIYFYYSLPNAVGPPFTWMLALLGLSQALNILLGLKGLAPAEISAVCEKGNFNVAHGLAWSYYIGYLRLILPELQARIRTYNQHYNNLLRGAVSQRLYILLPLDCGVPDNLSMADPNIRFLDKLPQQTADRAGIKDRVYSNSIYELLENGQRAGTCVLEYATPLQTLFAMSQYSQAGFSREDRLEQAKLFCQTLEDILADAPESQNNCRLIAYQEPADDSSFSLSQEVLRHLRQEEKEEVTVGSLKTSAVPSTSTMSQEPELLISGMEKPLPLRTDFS
(§3) Assay conditions: cells were harvested and resuspended at a concentration of 5×10^5 cells/mL in fresh growth media. Of this cell preparation 20 μL per well was dispensed into 384 well cell culture plates (Greiner, #781098X) and incubated at 37° C./5% CO2 for 2 hours.
(§4) Concentration Response Curves (commonly 11 doses) were prepared by 2.5 fold serial dilution starting from 10 mM compound stock solution in DMSO. Compound dilutions were transferred into the cell culture plates using a pintool (0.1 μL transfer), control wells were matched for DMSO. Positive control wells received ML RR-S2 CDA (Med Chem Express HY12885B) in 5 μL of media to a final concentration of 40 μM. All other wells received additional 5 μL of media only to equalize volume. The plates were incubated for 24 h at 37° C./5% CO2.
(§5) For the detection step, QUANTI-Luc (InvivoGen #rep-qlc1) was prepared according to manufacturer's instruction and 10 μL were added per well to the culture plates. Plates were shaken for ten seconds on an orbital shaker and left in the dark at room temperature for two minutes, before luminescence was read on a Perkin Elmer Envision plate reader.
(§6) Data analysis: Luminescence raw data was normalized % activity relative to the signal of the positive control wells and negative control wells which were not treated with compound. The following formula was used to calculate normalized % activity from raw signals: % activity=(sample−negative)/(positive−negative)
(§7) The THP-1 STING Lucia ISG cell EC50 provides an assessment of activity at the human HAQ isoform of STING. For assessing compound activity against the WT human STING isoform, an equivalent method was conducted where the cells used were THP-1-Dual KI-hSTING-R232 (InvivoGen #thpd-r232).

The target of another test is WT human STING isoform (Homo sapiens (Human), UniProt Q86WV6, H232R). In words: THP-1-Dual KI-hSTING-R232 reporter cell line assay. Conditions: 24 h incubation, luminescence, normalized to ML RR-S2 CDA 40 μM; read-out: EC50 THP-1 Dual KI-hSTING-R232 cells. The class given is cell-based. How it is done: as §2, §3, §4, §5, §6, §7
WT human STING isoform, sequence (Q86WV6 whole entry H232R, canonical isoform): as the sequence (Q86WV6 whole entry R71H/G230A/H232R/R293Q, canonical isoform) above, with H71R, A230G, Q293R counted along it
Test [4] concerns the target T2, human STING (WT). The experiment in a line: Surface Plasmon Resonance (SPR), STING (WT). As to conditions: read-out: SPR (WT) KD; biotinylated STING on streptavidin chip, 8° C.
The target of test [5] is T1, human STING (HAQ). In words: Surface Plasmon Resonance (SPR), STING (HAQ). As to conditions: read-out: SPR (HAQ) KD; biotinylated STING on streptavidin chip, 8° C.

T1 sequence (Q86WV6 149-345 G230A/H232R/R293Q): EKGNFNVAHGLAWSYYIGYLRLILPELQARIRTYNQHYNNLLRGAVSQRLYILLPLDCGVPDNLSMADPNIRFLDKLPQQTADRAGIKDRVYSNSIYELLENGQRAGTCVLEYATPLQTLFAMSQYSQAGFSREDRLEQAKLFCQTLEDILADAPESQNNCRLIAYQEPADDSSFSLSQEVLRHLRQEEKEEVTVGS
T2 sequence (Q86WV6 149-345 H232R): as the sequence (Q86WV6 149-345 G230A/H232R/R293Q) above, with A82G, Q145R counted along it

Consider `NC(=O)c1ccc2c(c1)nc(-c1c(C(=O)O)sc3cccc(Cl)c13)n2CCn1c(-c2c(C(=O)O)sc3cccc(Cl)c23)nc2cc(C(N)=O)ccc21` (single isomer, unassigned) [Example 1.1, 3,3′-(Ethane-1,2-diylbis(5-carbamoyl-1H-benzo[d]imidazole-1,2-diyl))bis(4-chlorobenzo[b]thiophene-2-carboxylic acid)], for which, at human STING (HAQ) [1], the “DSF huSTING (HAQ) ΔTm” value is 31.8 °C. Also, on human STING (WT) [2], the “DSF huSTING (WT) ΔTm” value worked out at 19.9 °C. In addition, the EC50 in test [3] amounted to 681 nM; on WT human STING isoform, 271 nM. Also, the figures for the Kd on human STING (WT) [4] and on human STING (HAQ) [5] were 119 nM and 1.7 nM, respectively.
As to `NC(=O)c1ccc2c(c1)nc(-c1c(C(=O)O)sc3c(F)ccc(Cl)c13)n2CCn1c(-c2c(C(=O)O)sc3c(F)ccc(Cl)c23)nc2cc(C(N)=O)ccc21` (single isomer, unassigned) [Example 2.1, 3,3′-(Ethane-1,2-diylbis(5-carbamoyl-1H-benzo[d]imidazole-1,2-diyl))bis(4-chloro-7-fluorobenzo[b]thiophene-2-carboxylic acid)], the ΔTm at 100 µM at human STING (HAQ) [1] amounted to 32 °C. In addition, the “DSF huSTING (WT) ΔTm” value on human STING (WT) [2] came out at 21 °C. Also, the EC50 in test [3] worked out at 1830 nM; on WT human STING isoform, 518 nM. The figures for the Kd at human STING (WT) [4] and on human STING (HAQ) [5] were 31 nM and 7.4 nM, respectively.
Consider `NC(=O)c1ccc2c(c1)nc(-c1c(C(=O)O)sc3cccc(Cl)c13)n2CCCn1c(-c2c(C(=O)O)sc3cccc(Cl)c23)nc2cc(C(N)=O)ccc21` (single isomer, unassigned) [Example 4.1, 3,3′-(Propane-1,3-diylbis(5-carbamoyl-1H-benzo[d]imidazole-1,2-diyl))bis(4-chlorobenzo[b]thiophene-2-carboxylic acid)], for which the “DSF huSTING (HAQ) ΔTm” value on human STING (HAQ) [1] stood at 2.85 °C. Also, the “DSF huSTING (WT) ΔTm” value at human STING (WT) [2] is −0.82 °C. For the same compound, the EC50 (in test [3]; at WT human STING isoform) was over 40000 nM in each case. In addition, the Kd at human STING (WT) [4] worked out at 500000 nM; on human STING (HAQ) [5], 35100 nM.
In the case of `COc1cccc2sc(C(=O)O)c(-c3nc4cc(C(N)=O)ccc4n3CCn3c(-c4c(C(=O)O)sc5cccc(OC)c45)nc4cc(C(N)=O)ccc43)c12` (single isomer, unassigned) [Example 5.1, 3,3′-(Ethane-1,2-diylbis(5-carbamoyl-1H-benzo[d]imidazole-1,2-diyl))bis(4-methoxybenzo[b]thiophene-2-carboxylic acid)], the “DSF huSTING (HAQ) ΔTm” value on human STING (HAQ) [1] was 23.59 °C. The “DSF huSTING (WT) ΔTm” value on human STING (WT) [2] was 6.4 °C. Also, the EC50 in test [3] is over 40000 nM; on WT human STING isoform it was 13600 nM. The Kd was found to be 692 nM on human STING (WT) [4] and 20.9 nM on human STING (HAQ) [5].
On to `COc1cccc2sc(C(=O)O)c(-c3nc4cc(C(N)=O)ccc4n3CCn3c(-c4c(C(=O)O)sc5cccc(OC)c45)nc4cc(C(N)=O)ccc43)c12` (single isomer, unassigned) [Example 5.2, 3,3′-(Ethane-1,2-diylbis(5-carbamoyl-1H-benzo[d]imidazole-1,2-diyl))bis(4-methoxybenzo[b]thiophene-2-carboxylic acid)], for which the ΔTm at 100 µM at human STING (HAQ) [1] worked out at 30.9 °C. The “DSF huSTING (WT) ΔTm” value on human STING (WT) [2] was determined as 19.17 °C. Also, the EC50 in test [3] stood at 1660 nM; on WT human STING isoform, 489 nM. Moreover, the values for the Kd at human STING (WT) [4] and on human STING (HAQ) [5] were 122 nM and 1.4 nM, respectively.
`NC(=O)c1ccc2c(c1)nc(-c1c(C(=O)O)sc3cccc(Br)c13)n2CCn1c(-c2c(C(=O)O)sc3cccc(Br)c23)nc2cc(C(N)=O)ccc21` (single isomer, unassigned) [Example 11.1, 3,3′-(Ethane-1,2-diylbis(5-carbamoyl-1H-benzo[d]imidazole-1,2-diyl))bis(4-bromobenzo[b]thiophene-2-carboxylic acid)]: the “DSF huSTING (HAQ) ΔTm” value on human STING (HAQ) [1] is 31.05 °C. Besides, the “DSF huSTING (WT) ΔTm” value on human STING (WT) [2] came out at 17.83 °C. For the same compound, the EC50 was 182 nM in test [3] and 172 nM at WT human STING isoform. Further, the Kd was determined as 63 nM on human STING (WT) [4] and 1.64 nM on human STING (HAQ) [5].
On to `COc1ccc(F)c2sc(C(=O)O)c(-c3nc4cc(C(N)=O)ccc4n3CCn3c(-c4c(C(=O)O)sc5c(F)ccc(OC)c45)nc4cc(C(N)=O)ccc43)c12` (single isomer, unassigned) [Example 13.1, 3,3′-(Ethane-1,2-diylbis(5-carbamoyl-1H-benzo[d]imidazole-1,2-diyl))bis(7-fluoro-4-methoxybenzo[b]thiophene-2-carboxylic acid)], for which the “DSF huSTING (HAQ) ΔTm” value at human STING (HAQ) [1] came to 31.23 °C. In addition, at human STING (WT) [2], the “DSF huSTING (WT) ΔTm” value came out at 18.17 °C. Further, the figures for the EC50 (in test [3]; at WT human STING isoform) were 8310 nM and 3750 nM, respectively. The Kd at human STING (WT) [4] was 300 nM; at human STING (HAQ) [5], 4 nM.
Consider `Cc1cccc2sc(C(=O)O)c(-c3nc4cc(C(N)=O)ccc4n3CCn3c(-c4c(C(=O)O)sc5cccc(C)c45)nc4cc(C(N)=O)ccc43)c12` (single isomer, unassigned) [Example 15.2, 3,3′-(Ethane-1,2-diylbis(5-carbamoyl-1H-benzo[d]imidazole-1,2-diyl))bis(4-methylbenzo[b]thiophene-2-carboxylic acid)], for which, at human STING (HAQ) [1], the “DSF huSTING (HAQ) ΔTm” value is 31.87 °C. At human STING (WT) [2], the “DSF huSTING (WT) ΔTm” value was found to be 20.41 °C. The EC50 in test [3] was determined as 272 nM; on WT human STING isoform, 199 nM. For the same compound, the dissociation constant (Kd) on human STING (WT) [4] came to 191 nM; at human STING (HAQ) [5], 4.98 nM.
`NC(=O)c1ccc2c(c1)nc(-c1c(C(=O)O)sc3c(F)ccc(Br)c13)n2CCn1c(-c2c(C(=O)O)sc3c(F)ccc(Br)c23)nc2cc(C(N)=O)ccc21` (single isomer, unassigned) [Example 20.1, 3,3′-(Ethane-1,2-diylbis(5-carbamoyl-1H-benzo[d]imidazole-1,2-diyl))bis(4-bromo-7-fluorobenzo[b]thiophene-2-carboxylic acid)]: at human STING (HAQ) [1], the “DSF huSTING (HAQ) ΔTm” value was determined as 31.76 °C. Further, the “DSF huSTING (WT) ΔTm” value on human STING (WT) [2] worked out at 22.71 °C. Also, the EC50 in test [3] stood at 1580 nM; on WT human STING isoform, 632 nM. Moreover, the Kd on human STING (WT) [4] came to 16 nM; on human STING (HAQ) [5], 1.65 nM.
In the case of `NC(=O)c1ccc2c(c1)nc(-c1c(C(=O)O)sc3cccc(Cl)c13)n2CCCCn1c(-c2c(C(=O)O)sc3cccc(Cl)c23)nc2cc(C(N)=O)ccc21` [Example 3, 3,3′-(Butane-1,4-diylbis(5-carbamoyl-1H-benzo[d]imidazole-1,2-diyl))bis(4-chlorobenzo[b]thiophene-2-carboxylic acid)], the ΔTm at 100 µM on human STING (HAQ) [1] was -0.55 °C; at human STING (WT) [2] it was -1.83 °C. Moreover, the EC50 (in test [3]; at WT human STING isoform) was over 40000 nM throughout. The results for the Kd at human STING (WT) [4] and at human STING (HAQ) [5] were 6300 nM and 5060 nM, respectively.
Regarding `COc1nccc2sc(C(=O)O)c(-c3nc4cc(C(N)=O)ccc4n3CCn3c(-c4c(C(=O)O)sc5ccnc(OC)c45)nc4cc(C(N)=O)ccc43)c12` [Example 7, 3,3′-(Ethane-1,2-diylbis(5-carbamoyl-1H-benzo[d]imidazole-1,2-diyl))bis(4-methoxythieno[3,2-c]pyridine-2-carboxylic acid)], the ΔTm at 100 µM is 6.96 °C at human STING (HAQ) [1] and 0.6 °C on human STING (WT) [2]. The EC50 in test [3] is over 40000 nM; at WT human STING isoform it was 7520 nM. Also, the Kd at human STING (WT) [4] is 80000 nM; on human STING (HAQ) [5], 28000 nM.
Take `CCOC(=O)c1sc2cccc(Cl)c2c1-c1nc2cc(C(N)=O)ccc2n1CCn1c(-c2c(C(=O)OCC)sc3cccc(Cl)c23)nc2cc(C(N)=O)ccc21` [Example A1, Diethyl 3,3′-(ethane-1,2-diylbis(5-carbamoyl-1H-benzo[d]imidazole-1,2-diyl))bis(4-chlorobenzo[b]thiophene-2-carboxylate)]: the ΔTm at 100 µM came out at 0.36 °C at human STING (HAQ) [1] and 1.84 °C at human STING (WT) [2]. For the same compound, the EC50 turned out to be 18400 nM in test [3] and 12000 nM at WT human STING isoform. Also, the Kd was 16000 nM on human STING (WT) [4] and 14900 nM at human STING (HAQ) [5].

The term EC50 denotes the concentration giving half of the maximal effect. One may read the Kd as the free concentration of one partner at which half of the binding sites on the other are occupied at equilibrium, for simple one-to-one binding. One may read the ΔTm as the change in melting temperature against a reference sample.
